Laboratory results published in patent US10434101B2, “Heterocyclic compounds and uses thereof” (Celgene CAR LLC, priority 2010, dated 2019).
Like-named read-outs stand apart in the source and are kept apart here.

Assays:
[1] = tested on: H1975 cells (EGFR L858R/T790M); experiment: Cell proliferation (CellTiter Glo, 72 hr) in H1975 cells; format: cell-based, human; conditions: for GI50: Homo sapiens
Procedure: (§1) A431 human epidermoid carcinoma, H1975 human NSCLC and HCC827 human NSCLC adenocarcinoma cells were obtained from the American Type Culture Center (Manassas, Va.). A431 cells were grown in DMEM (Invitrogen, Carlsbad, Calif.) supplemented with 10% FBS (HyClone, South Logan, Utah) and 1% Penicillin-Streptomycin (P/S, Lonza, Walkersville, Md.).
(§2) Cells were plated in Growth Media supplemented with 5% FBS and 1% P/S at a density of 3,000 cells per well in 96 well tissue culture plates (Corning). […] Growth inhibition (GI50) values were determined by Graph Pad Prism.

A431 cells (WT EGFR) = experiment: Cell proliferation (CellTiter Glo, 72 hr) in A431 cells; format: cell-based; conditions: Homo sapiens
Procedure: as §1, §2

[2] = biological target: EGFR double mutation L858R/T790M (H1975 cells) (Homo sapiens (Human), UniProt P00533, L858R/T790M); experiment: Phospho-EGFR signaling (immunoblotting, 1 hr) in H1975 cells; format: cell-based; conditions: signaling EC50 WT (A431) / H1975
Procedure: as §1
(§3) All primary antibodies were obtained from Cell Signaling (Danvers, Mass.) and used at 1:1000. Secondary antibodies were used at 1:10,000. Goat anti-mouse IgG IRDye 800CW antibody was obtained from LiCor Biosciences (Lincoln, Nebr.) and goat anti-rabbit IgG Alexa Fluor 680 was obtained from Invitrogen.
(§4) Cells were grown in 12-well plates (Corning, Coring, N.Y.) to 90% confluence and then incubated in low-serum (0.1% FBS) media for 16-18 hr. […] A431 cells were then stimulated with 50 ng/ml EGF (Peprotech, Rocky Hill, N.J.) for 15 min. After treatment, cell monolayers were washed with cold PBS (Invitrogen) and immediately lysed by scrapping into 60 uL cold Cell Extraction Buffer (Invitrogen) supplemented with Complete Protease inhibitors (Roche, Indianapolis, Ind.) and PhosphoSTOP (Roche) phosphatase inhibitors.
(§5) Phospho-protein signals were quantitated using Odyssey Infrared Imaging (Li-Cor Biosciences).
(§6) To assess phosphor-EGFR signaling, blots were probed with rabbit anti-Phospho-EGFR (Y1068) and mouse total anti-EGFR antibodies. Phospho-EGFR signal was normalized to total EGFR expression for each sample. […] Normalized data was fitted using a sigmoidal curve analysis program (Graph Pad Prism version 5) with variable Hill slope to determine the EC50 values.

pEGFR in H1975 cells = pEGFR in H1975 cells (Homo sapiens (Human), UniProt P00533, L858R/T790M); experiment: Washout experiment in H1975 cells (pEGFR); format: cell-based; conditions: 500 nM for 1 hr; for pEGFR activity restored: 24 h after compound removal, by new protein synthesis; for inhibition at 0.5 µM: NCI-H1975
Procedure: Washout Experiment in H1975 Cells Containing EGFR Deletion/T790M Mutation
Cells were plated in Growth Media supplemented with 10% FBS and 1% P/S at a density of 2.0×10^5 cells per well in 12 well tissue culture plates. Cells were allowed to settle down for 4 hrs and then maintained in low-serum (0.1% FBS) media overnight.
The following morning the media was removed and the cells were treated with 500 nM test compound in low-serum media for 1 hr. The cells were washed free of compound 2× with PBS (Invitrogen). One set of cells were immediately lysed as indicated above as the 0 hr time point. The remaining cells were incubated with complete RPMI-1640 growth media (10% FBS) for 1, 3, 6 and 24 hr. For the first 1 hr, cells were washed 2× with PBS every 30 min. DMSO (0.5%) controls were collected at the 0, 3, 6 and 24 hr time points.

[3] = tested on: HCC827 cells (EGFR delE746-A750); experiment: Cell proliferation (CellTiter Glo, 72 hr) in HCC827 cells; format: cell-based, human; conditions: for GI50: Homo sapiens
Procedure: as §1, §2

[4] = biological target: EGFR delE746-A750 deletion mutation (HCC827 cells) (Homo sapiens (Human), UniProt P00533, DEL746-750); experiment: Phospho-EGFR signaling (immunoblotting, 1 hr) in HCC827 cells; format: cell-based; conditions: signaling EC50 WT (A431) / HCC827
Procedure: as §1, §3, §4, §5, §6

EGFR-WT = EGFR-WT (Homo sapiens (Human), UniProt P00533); experiment: Omnia assay, potency against EGFR (WT) active enzyme; format: biochemical; conditions: [EGFR-WT]=5 nM, [ATP]=15 uM, 30 min pre-incubation
Procedure: Kinase reactions were started with the addition of 45 μL of the ATP/Tyr-Sox peptide substrate mix and monitored every 71 seconds for 60 minutes at λex360/λem485 in a Synergy^4 plate reader from BioTek (Winooski, Vt.).

[5] = NCI-H1975, H1975 cells, 72 hr, read-out: H1975 GI50
[6] = NCI-H1975, Table 2, H1975 express EGFR L858R/T790M, read-out: Comparative GI50 Values, H1975
[7] = A-431, A431 cells, 72 hr, read-out: WT EGFR GI50
[8] = A-431, Table 2, A431 cells express WT EGFR, read-out: Comparative GI50 Values, A431
[9] = 1 hr after compound removal, read-out: pEGFR phosphorylation inhibited
[10] = for at least 8 hours after compound was removed, read-out: pEGFR remained inhibited
[11] = HCC827 cells, 72 hr, read-out: HCC827 GI50
[12] = Table 2, HCC827 express EGFR delE746-A750, read-out: Comparative GI50 Values, HCC827

SMILES | GI50 [1, 5] | GI50 [1, 6] | GI50 (A431 cells (WT EGFR); [7]) | GI50 (A431 cells (WT EGFR); [8]) | Ratio WT/mutant (H1975) [2] | pEGFR activity restored (pEGFR in H1975 cells) | inhibition at 0.5 µM (pEGFR in H1975 cells; [9]) | inhibition at 0.5 µM (pEGFR in H1975 cells; [10]) | GI50 [3, 11] | GI50 [3, 12] | Ratio WT/mutant (HCC827) [4] | IC50 (EGFR-WT) | Ratio WT/mutant (H1975) ([1]; proliferation GI50 WT (A431) / H1975) | Ratio WT/mutant (HCC827) ([3]; proliferation GI50 WT (A431) / HCC827) | GI50 ([1]; NCI-H1975, 72 h, read-out: H1975 GI50) | GI50 (A431 cells (WT EGFR); A-431, 72 h, read-out: WT EGFR GI50) | GI50 ([3]; HCC827, 72 h, read-out: HCC827 GI50)
C=CC(=O)Nc1cccc(Nc2nc(Nc3ccc(N4CCOCC4)cc3OC(F)F)ncc2C(F)(F)F)c1 [Compound I-14, N-(3-(2-(2-(difluoromethoxy)-4-morpholinophenylamino)-5-(trifluoromethyl)pyrimidin-4-ylamino)phenyl)acrylamide] | 100 to 500 nM |  | > 1000 nM |  | >15 |  |  |  | 10 to 100 nM |  | >15 |  |  |  |  |  | 
C=CC(=O)Nc1cccc(Nc2nc(Nc3ccc(N4CCOCC4)cc3OC)ncc2Cl)c1 [Compound I-15, N-(3-(5-chloro-2-(2-methoxy-4-morpholinophenylamino)pyrimidin-4-ylamino)phenyl)acrylamide] | 500 to 1000 nM |  | > 1000 nM |  |  |  |  |  | 100 to 500 nM |  |  | 30 to 100 nM | >1 | >10 |  |  | 
C=CC(=O)Nc1cccc(Nc2nc(Nc3ccc(N4CCN(S(C)(=O)=O)CC4)cc3OC)ncc2C(F)(F)F)c1 [Compound I-17, N-(3-(2-(2-methoxy-4-(4-(methylsulfonyl)piperazin-1-yl)phenylamino)-5-(trifluoromethyl)pyrimidin-4-ylamino)phenyl)acrylamide] | 100 to 500 nM |  | > 1000 nM |  | >30 |  |  |  | 10 to 100 nM |  | >5 |  |  |  |  |  | 
C=CC(=O)Nc1cccc(Oc2nc(Nc3ccc(N4CCN(C(=O)OC(C)(C)C)CC4)cc3OC)ncc2Cl)c1 [Compound I-46, tert-butyl 4-(4-(4-(3-acrylamidophenoxy)-5-chloropyrimidin-2-ylamino)-3-methoxyphenyl)piperazine-1-carboxylate] |  |  |  |  | >10 |  |  |  |  |  | >50 |  |  |  | 500 to 1000 nM | > 1000 nM | 100 to 500 nM
C=CC(=O)Nc1cccc(Nc2nc(Nc3ccc(N4CCS(=O)(=O)CC4)cc3OC)ncc2C(F)(F)F)c1 [Compound I-49, N-(3-(2-(2-methoxy-4,4-dioxo-4-thiomorpholinophenylamino)-5-(trifluoromethyl)pyrimidin-4-ylamino)phenyl)acrylamide] | 100 to 500 nM |  | > 1000 nM |  | >20 |  |  |  | 10 to 100 nM |  |  |  |  |  |  |  | 

More lines, main results first:

GI50 [1, 5] | GI50 [1, 6] | GI50 (A431 cells (WT EGFR); [7]) | GI50 (A431 cells (WT EGFR); [8]) | Ratio WT/mutant (H1975) [2] | pEGFR activity restored (pEGFR in H1975 cells) | inhibition at 0.5 µM (pEGFR in H1975 cells; [9]) | inhibition at 0.5 µM (pEGFR in H1975 cells; [10]) | GI50 [3, 11] | GI50 [3, 12] | Ratio WT/mutant (HCC827) [4] | IC50 (EGFR-WT) | SMILES | Ratio WT/mutant (H1975) ([1]; proliferation GI50 WT (A431) / H1975) | Ratio WT/mutant (HCC827) ([3]; proliferation GI50 WT (A431) / HCC827) | GI50 ([1]; NCI-H1975, 72 h, read-out: H1975 GI50) | GI50 (A431 cells (WT EGFR); A-431, 72 h, read-out: WT EGFR GI50) | GI50 ([3]; HCC827, 72 h, read-out: HCC827 GI50)
10 to 100 nM | 10 to 100 nM | > 1000 nM | > 1000 nM | >50 | 40-60% | 80 to 100% | 60 to 90% | 10 to 100 nM | 10 to 100 nM |  |  | C=CC(=O)Nc1cccc(Nc2nc(Nc3ccc(N4CCOCC4)cc3OC)ncc2C(F)(F)F)c1 [Compound I-2, N-(3-(2-(2-methoxy-4-morpholinophenylamino)-5-(trifluoromethyl)pyrimidin-4-ylamino)phenyl)acrylamide] |  |  |  |  | 
10 to 100 nM | 10 to 100 nM | 500 to 1000 nM | 500 to 1000 nM |  | 40-60% | 80 to 100% | 60 to 90% | 10 to 100 nM | 10 to 100 nM |  |  | C=CC(=O)Nc1cccc(Nc2nc(Nc3ccc(N4CCN(C(C)=O)CC4)cc3OC)ncc2C(F)(F)F)c1 [Compound I-4, N-(3-(2-(4-(4-acetylpiperazin-1-yl)-2-methoxyphenylamino)-5-(trifluoromethyl)pyrimidin-4-ylamino)phenyl)acrylamide] |  |  |  |  | 
10 to 100 nM |  | > 1000 nM |  | >50 |  |  |  | 10 to 100 nM |  |  |  | C=CC(=O)Nc1cccc(Nc2nc(Nc3ccc(N4CCN(C(C)=O)[C@H](C(=O)OC)C4)cc3OC)ncc2C(F)(F)F)c1 [Compound I-48] |  |  |  |  | 
